Where no end group is shown, it is not given here.
Key:
Assay type in all cases: cell-based, human
[1] = tested on: CD49c-positive cell aggregates reaggregated after FACS purification from hESC sample; assay: ACTH secretion test with CRH receptor inhibitor under standard and low glucose; conditions: 3 hours pretreatment, vs 0.1% DMSO, 30 minutes, aggregates cultured 13-15 days
Procedure: As a test method, a cell aggregate that was reaggregated after FACS purification from a hESC sample and cultured for 13-15 days was used. Before secretion measurement, cells were pretreated for 3 hours with maintenance medium (gfCDM+20% KSR+[…]) containing antalarmin […] or the same amount of solvent (0.1% DMSO) as a control. Each pretreated cell aggregate was transferred to a 1.5 ml microtube, incubated in 250 μl of standard glucose medium (glucose-free DMEM+5.56 mM D-glucose+4.44 mM D-mannitol) at 37° C. for 30 minutes, and the medium was collected. Subsequently, the aggregate was incubated in 250 μl of low glucose medium (glucose-free DMEM+0.56 mM D-glucose+9.44 mM D-mannitol) at 37° C. for 30 minutes, and then the medium was collected. Antalarmin or DMSO was continuously added to the standard glucose medium and low glucose medium described above. The results of measuring the ACTH concentration in the collected medium using the ECLIA method used in clinical tests are shown. It was confirmed that ACTH secretion increased under low glucose conditions (10 mg/dL) compared to standard glucose conditions (100 mg/dL). […]
(§1) Cell aggregates that were reaggregated after MACS or FACS purification and cultured for 8 days or more were used. […] ACTH concentration in the collected medium etc., was measured by the ECLIA method used in clinical testing. […]

[2] = tested on: CD49c-positive cell aggregates reaggregated after FACS purification from hESC sample; assay: ACTH secretion test with secretion suppressor cortisol; conditions: CD49c-positive cells (FACS, hESC sample), cultured 13 days, 3 hours pretreatment, Hydrocortisone 20 µg/ml vs 0.1% DMSO, standard glucose medium 30 minutes, ECLIA
Procedure: As a test method, a cell aggregate that was reaggregated after FACS purification from a hESC sample and cultured for 12 days was used. Each cell aggregate was transferred to a 1.5 ml microtube, incubated in 250 μl of standard glucose medium (glucose-free DMEM+5.56 mM D-glucose+4.44 mM D-mannitol) at 37° C. for 30 minutes, and then the medium was collected. Subsequently, the aggregate was incubated in 250 μl of standard glucose medium containing 1 μg/ml CRH (Peptide Institute, #4136-s) at 37° C. for 30 minutes, and then the medium was collected. The ACTH concentration in the collected medium was measured by the ECLIA method used in clinical testing. […] As a test method, a cell aggregate that was reaggregated after FACS purification from a hESC sample and cultured for 13 days was used. Before secretion measurement, cells were pretreated for 3 hours with maintenance medium (gfCDM+20% KSR+2 μM SAG) containing cortisol (Hydrocortisone, […]) or the same amount of solvent (0.1% DMSO) as a control. […] The ACTH concentration in the collected medium was measured by the ECLIA method used in clinical testing. […] ACTH concentration in the collected medium etc., was measured by the ECLIA method used in clinical testing. […]

[3] = tested on: cell aggregates reaggregated after FACS purification from hiPSC sample (CD49c-positive / CD49c-negative cells); assay: ACTH secretion test (CRH stimulation) on hiPSC sample reaggregates; conditions: cultured 21 days, 1 μg/ml CRH in standard glucose medium, 37° C., 30 minutes, ECLIA
Procedure: As a test method, a cell aggregate that was reaggregated after FACS purification from a hiPSC sample and cultured for 21 days was used. Each cell aggregate was transferred to a 1.5 ml microtube, incubated in 250 μl of standard glucose medium (glucose-free DMEM+5.56 mM D-glucose+4.44 mM D-mannitol) at 37° C. for 30 minutes, and then the medium was collected. Subsequently, the aggregate was incubated in 250 μl of standard glucose medium containing 1 μg/ml CRH (Peptide Institute, #4136-s) at 37° C. for 30 minutes, and then the medium was collected. The ACTH concentration in the collected medium was measured by the ECLIA method used in clinical testing.
(§2) Cell aggregates that were reaggregated after MACS or FACS purification and cultured for 8 days or more were used. One or five cell aggregates were incubated at a predetermined temperature and for a predetermined time using a predetermined medium, etc., and then the medium and the like were collected. ACTH concentration in the collected medium etc., was measured by the ECLIA method used in clinical testing. In addition, when confirming the influence of secretion suppressing factors and CRH receptor inhibitors, pretreatment was performed for a predetermined period of time with a maintenance medium containing secretion suppressing factors and CRH receptor inhibitors before secretion measurement.

[4] = tested on: cell aggregates reaggregated after MACS purification from hESC sample (CD49c-positive / CD49c-negative cells); assay: ACTH secretion test (CRH stimulation) on reaggregates after MACS purification; conditions: 8 days after reaggregation, 5 aggregates, 1 μg/ml CRH in HBSS, 37° C., 10 minutes, ECLIA
Procedure: The test method used cell aggregates that were cultured for 8 days after MACS purification from a sample differentiated from hESC (also referred to as “hESC sample”) and reaggregation. 5 cell aggregates were transferred to a 1.5 ml microtube and incubated in 250 μl of HBSS(+) (Wako, #084-08965) at 37° C. for 10 minutes, and then HBSS was collected. Subsequently, HBSS was collected after incubation at 37° C. for 10 minutes in 250 μl of HBSS containing 1 μg/ml CRH (Peptide Institute, #4136-s). The ACTH concentration in the collected HBSS was measured by the ECLIA method used in clinical testing.
as §2

[5] = tested on: CD49c-positive cell aggregates reaggregated after FACS purification from hESC sample; assay: ACTH secretion test (CRH stimulation) on reaggregates after FACS purification; conditions: CD49c-positive cells (FACS, hESC sample), cultured 12 days, 1 μg/ml CRH in standard glucose medium, 37° C., 30 minutes, ECLIA
Procedure: As a test method, a cell aggregate that was reaggregated after FACS purification from a hESC sample and cultured for 12 days was used. Each cell aggregate was transferred to a 1.5 ml microtube, incubated in 250 μl of standard glucose medium (glucose-free DMEM+5.56 mM D-glucose+4.44 mM D-mannitol) at 37° C. for 30 minutes, and then the medium was collected. Subsequently, the aggregate was incubated in 250 μl of standard glucose medium containing 1 μg/ml CRH (Peptide Institute, #4136-s) at 37° C. for 30 minutes, and then the medium was collected. The ACTH concentration in the collected medium was measured by the ECLIA method used in clinical testing. […] As a test method, a cell aggregate that was reaggregated after FACS purification from a hESC sample and cultured for 13 days was used. Before secretion measurement, cells were pretreated for 3 hours with maintenance medium (gfCDM+20% KSR+2 μM SAG) containing cortisol (Hydrocortisone, […]) or the same amount of solvent (0.1% DMSO) as a control. […] The ACTH concentration in the collected medium was measured by the ECLIA method used in clinical testing.
as §1

Molecule: CCCCN(CC)c1nc(C)nc2c1c(C)c(C)n2-c1c(C)cc(C)cc1C [Antalarmin]
- ACTH secretion with Antalarmin treatment ([1]; low glucose conditions (10 mg/dL)): reduced ACTH secretion
- ACTH secretion with Antalarmin treatment ([1]; standard glucose conditions (100 mg/dL)): reduced ACTH secretion

Molecule: C[C@]12CCC(=O)C=C1CC[C@@H]1[C@@H]2[C@@H](O)C[C@@]2(C)[C@H]1CC[C@]2(O)C(=O)CO [cortisol, Hydrocortisone]
- ACTH secreted per cell aggregate before and after cortisol treatment [2]: ACTH secretion was reduced

Molecule: CRH: CRH (Peptide Institute, #4136-s), a physiological secretion stimulating factor (SEEPPISLDLTFHLLREVLEMARAEQLAQQAHSNRKLMEII; ends and bridges not checked; UniProt P06850 154-194, looked up)
- ACTH secretion per cell aggregate before and after CRH stimulation ([3]; CD49c-negative cells (FACS, hiPSC sample)): did not respond to CRH
- ACTH secretion per cell aggregate before and after CRH stimulation ([3]; CD49c-positive cells (FACS, hiPSC sample)): increased ACTH secretion
- ACTH secretion before and after CRH stimulation ([4]; CD49c-negative cells (MACS, hESC sample)): did not respond to CRH
- ACTH secretion before and after CRH stimulation ([4]; CD49c-positive cells (MACS, hESC sample)): increased ACTH secretion
- ACTH secretion per cell aggregate before and after CRH stimulation [5]: ACTH secretion increases

Reference: patent US20250034522A1, “METHOD FOR SEPARATING PITUITARY CELLS AND HYPOTHALAMIC CELLS USING CELL SURFACE MARKER” (FUJITA ACADEMY, priority 2021, published 2025)
